≈ marks a conversion by molar mass, not a printed value. Blank lines part the entries; values can stand above or below the compound they belong to.
Key:
Assay in all cases: ≥ marks a high value that may be exact or a test limit, other limits are often not marked, values filed in µg/mL are converted to µM
Escherichia coli JJ2487 = system: Escherichia coli JJ2487
Escherichia coli O157:H7 = system: Escherichia coli O157:H7
Escherichia coli JW0013 = system: Escherichia coli JW0013
[1] = system: Salmonella typhimurium SL1344
[2] = system: Salmonella enterica subsp. enterica serovar Enteritidis MH91989
Escherichia coli MC1061 = system: Escherichia coli MC1061
Escherichia coli J2210 = system: Escherichia coli J2210
[3] = system: Salmonella enterica subsp. enterica serovar Typhimurium ATCC 14028
[4] = system: Vibrio cholerae MTCC 3904
[5] = system: Alkalihalobacillus alcalophilus MTCC 860
[6] = system: Staphylococcus aureus MTCC 3160
[7] = system: Pseudomonas aeruginosa MTCC 3542
[8] = system: Klebsiella oxytoca MTCC 2275
[9] = system: Proteus mirabilis MTCC 3158
[10] = system: Citrobacter freundii MTCC 1658
[11] = system: Bordetella bronchiseptica MTCC 6837
[12] = system: Enterococcus faecalis MTCC 439
[13] = system: Escherichia coli K12 MG1655
[14] = system: Shigella boydii MTCC 11947
[15] = system: Alcaligenes faecalis MTCC 1937
[16] = system: Corynebacterium glutamicum MTCC 2679
[17] = system: Acinetobacter baumannii MTCC 9829
[18] = system: Stenotrophomonas maltophilia MTCC 1890
[19] = system: Proteus vulgaris MTCC 1771
[20] = system: Klebsiella pneumoniae MTCC 7407
[21] = system: Citrobacter koseri MTCC 1657
[22] = system: Klebsiella aerogenes MTCC 111
[23] = system: Salmonella enterica MTCC 9844
[24] = system: Staphylococcus haemolyticus MTCC 3383
[25] = system: Shigella flexneri MTCC 1457
[26] = system: Haemophilus influenzae MTCC 621
[27] = system: Pluralibacter gergoviae MTCC 3826
[28] = system: Escherichia coli ATCC 25922
[29] = system: Bacillus subtilis ATCC 6633
[30] = system: Salmonella enterica subsp. enterica serovar Enteritidis BNCC 103134
[31] = system: Staphylococcus aureus ATCC 25923
[32] = system: Candida albicans ATCC 10231
[33] = system: Candida tropicalis ATCC 13803
[34] = system: Pseudomonas aeruginosa PAO1
[35] = system: Staphylococcus epidermidis 1457
[36] = system: Staphylococcus aureus Newman
Bacillus subtilis 168 = system: Bacillus subtilis 168
[37] = system: Staphylococcus aureus USA 400
[38] = system: Staphylococcus aureus USA 200
[39] = system: Candida glabrata ATCC 2001
[40] = system: Klebsiella pneumoniae ATCC 13883
[41] = system: Staphylococcus aureus UAMS-1
[42] = system: Staphylococcus aureus MU50
[43] = system: Staphylococcus aureus USA 300
[44] = system: Cryptococcus neoformans ATCC 32045
[45] = system: Pseudomonas aeruginosa ATCC 10145
[46] = system: Escherichia coli ATCC 2592
[47] = system: Staphylococcus aureus ATCC 33591

Structure (SMILES): CC(C)C[C@H](NC(=O)[C@H](CCCCN)NC(=O)[C@@H]1CCCN1C(=O)[C@H](CC(C)C)NC(=O)[C@H](CO)NC(=O)[C@H](CCCN=C(N)N)NC(=O)[C@H](C)NC(=O)[C@H](CCCCN)NC(=O)[C@H](CCCCN)NC(=O)[C@H](Cc1ccccc1)NC(=O)[C@H](Cc1ccccc1)NC(=O)[C@H](CCCCN)NC(=O)[C@H](CCCCN)NC(=O)[C@H](Cc1c[nH]c2ccccc12)NC(=O)[C@@H](N)CO)C(=O)N[C@@H](Cc1ccccc1)C(=O)O [SWKKFFKKARSLPKLF]
- MIC [3]: 3.98 µM (≈ 8 µg/mL)
- MIC [4]: 31.8 µM (≈ 64 µg/mL)
- MIC [5]: 15.9 µM (≈ 32 µg/mL)
- MIC [6]: ≥ 63.6 µM
- MIC [7]: 15.9 µM (≈ 32 µg/mL)
- MIC [8]: 7.95 µM (≈ 16 µg/mL)
- MIC [9]: ≥ 63.6 µM
- MIC [10]: 15.9 µM (≈ 32 µg/mL)
- MIC [11]: 0.497 µM (≈ 1 µg/mL)
- MIC [12]: ≥ 63.6 µM
- MIC [13]: 1.99 µM (≈ 4 µg/mL)
- MIC [14]: 0.994 µM (≈ 2 µg/mL)
- MIC [15]: 31.8 µM (≈ 64 µg/mL)
- MIC [16]: 0.994 µM (≈ 2 µg/mL)
- MIC [17]: 1.99 µM (≈ 4 µg/mL)
- MIC [18]: 7.95 µM (≈ 16 µg/mL)
- MIC [19]: 7.95 µM (≈ 16 µg/mL)
- MIC [20]: 15.9 µM (≈ 32 µg/mL)
- MIC [21]: 3.98 µM (≈ 8 µg/mL)
- MIC [22]: 7.95 µM (≈ 16 µg/mL)
- MIC [23]: 3.98 µM (≈ 8 µg/mL)
- MIC [24]: 3.98 µM (≈ 8 µg/mL)
- MIC [25]: 1.99 µM (≈ 4 µg/mL)
- MIC [26]: 0.994 µM (≈ 2 µg/mL)
- MIC [27]: 31.8 µM (≈ 64 µg/mL)

Structure (SMILES): CC[C@H](C)[C@H](NC(=O)[C@H](C)NC(=O)[C@H](CO)NC(=O)[C@H](CC(C)C)NC(=O)[C@@H](N)Cc1ccccc1)C(=O)N[C@H](C(=O)N[C@@H](CO)C(=O)N[C@H](C(=O)N[C@@H](CC(C)C)C(=O)NCC(=O)N[C@@H](CCCCN)C(=O)N[C@@H](Cc1ccccc1)C(=O)N[C@@H](Cc1ccccc1)C(N)=O)[C@@H](C)CC)[C@@H](C)O [FLSAITSILGKFF]
- MIC [32]: 25 µM (≈ 36.1 µg/mL)
- MIC [33]: 6.2 µM (≈ 8.95 µg/mL)
- MIC [34]: > 50 µM
- MIC [35]: 6.3 µM (≈ 9.09 µg/mL)
- MIC [36]: 12.5 µM (≈ 18 µg/mL)
- MIC (Bacillus subtilis 168): 12.5 µM (≈ 18 µg/mL)
- MIC [37]: 6.25 µM (≈ 9.02 µg/mL)
- MIC [38]: 6.25 µM (≈ 9.02 µg/mL)
- MIC [39]: 25 µM (≈ 36.1 µg/mL)
- MIC [28]: > 50 µM
- MIC [40]: ≥ 50 µM
- MIC [41]: 25 µM (≈ 36.1 µg/mL)
- MIC [42]: 12.5 µM (≈ 18 µg/mL)
- MIC [43]: 6.3 µM (≈ 9.09 µg/mL)

The next lines start with the values.

- MIC (Escherichia coli JJ2487): 0.328 µM (≈ 0.79 µg/mL)
- MIC (Escherichia coli O157:H7): 0.998 µM (≈ 2.4 µg/mL)
- MIC (Escherichia coli JW0013): 0.249 µM (≈ 0.6 µg/mL)
- MIC [1]: 0.249 µM (≈ 0.6 µg/mL)
- MIC [2]: 0.249 µM (≈ 0.6 µg/mL)
- MIC (Escherichia coli MC1061): 0.0623 µM (≈ 0.15 µg/mL)
- MIC (Escherichia coli J2210): 0.125 µM (≈ 0.3 µg/mL)
Structure (SMILES): CC[C@H](C)[C@H](NC(=O)[C@H](CCCN=C(N)N)NC(=O)[C@H](CCCN=C(N)N)NC(=O)[C@@H]1CCCN1C(=O)[C@@H]1CCCN1C(=O)[C@H](CCCN=C(N)N)NC(=O)[C@@H]1CCCN1C(=O)[C@H](CCCN=C(N)N)NC(=O)[C@@H]1CCCN1C(=O)[C@H](CCCCN)NC(=O)[C@H](Cc1ccc(O)cc1)NC(=O)[C@@H]1CCCN1C(=O)[C@@H]1CCCN1C(=O)[C@H](CCCCN)NC(=O)[C@H](CC(=O)O)NC(=O)[C@@H](N)C(C)C)C(=O)N[C@@H](Cc1ccc(O)cc1)C(=O)N[C@@H](CC(N)=O)C(=O)N[C@@H](CCCN=C(N)N)C(N)=O [VDKPPYKPRPRPPRRIYNR]

- MIC [28]: 200 µM (≈ 148 µg/mL)
- MIC [29]: ≥ 300 µM
- MIC [30]: ≥ 350 µM
- MIC [31]: 300 µM (≈ 221 µg/mL)
Structure (SMILES): C[C@@H](O)[C@H](NC(=O)[C@H](Cc1ccccc1)NC(=O)[C@H](CO)NC(=O)[C@@H](NC(=O)[C@@H]1CCCN1C(=O)[C@@H](N)Cc1c[nH]c2ccccc12)[C@@H](C)O)C(=O)O [WPTSFT]

- MIC [32]: 33.5 µM (≈ 112 µg/mL)
- MIC [44]: 13.3 µM (≈ 44.5 µg/mL)
- MIC [45]: 4.79 µM (≈ 16 µg/mL)
- MIC [46]: 13.3 µM (≈ 44.5 µg/mL)
- MIC [47]: ≥ 74.8 µM
Structure (SMILES): C[C@H](NC(=O)[C@H](Cc1ccccc1)NC(=O)[C@H](CCCCN)NC(=O)[C@H](CCCCN)NC(=O)[C@H](C)NC(=O)[C@H](Cc1ccccc1)NC(=O)[C@H](CCCCN)NC(=O)[C@H](CCCCN)NC(=O)[C@H](C)NC(=O)[C@H](Cc1ccccc1)NC(=O)[C@H](CCCCN)NC(=O)[C@H](CCCCN)NC(=O)[C@H](C)NC(=O)[C@H](Cc1ccccc1)NC(=O)[C@H](CCCCN)NC(=O)[C@H](CCCCN)NC(=O)[C@H](C)NC(=O)[C@H](Cc1ccccc1)NC(=O)[C@H](CCCCN)NC(=O)[C@H](CCCCN)NC(=O)[C@H](C)NC(=O)[C@H](Cc1ccccc1)NC(=O)[C@H](CCCCN)NC(=O)[C@H](CCCCN)NC(=O)[C@H](C)NC(=O)[C@H](Cc1ccccc1)NC(=O)[C@@H](N)CCCCN)C(=O)N[C@@H](CCCCN)C(=O)O [KFAKKFAKKFAKKFAKKFAKKFAKKFAK]
